According to patent US11851426B2, “Bicyclic amines as CDK2 inhibitors” (Incyte Corporation, priority 2019, dated 2023):

Each molecule was assayed against CDK2/Cyclin E1 (Homo sapiens (Human), UniProt P24941) (assay: CDK2/Cyclin E1 HTRF enzyme activity assay). Conditions: 1 mM ATP; CDK2/Cyclin E1 0.25 nM; 60 minutes at room temperature.
Format: biochemical
Experimental: Example A. CDK2/Cyclin E1 HTRF Enzyme Activity Assay
CDK2/Cyclin E1 enzyme activity assays utilize full-length human CDK2 co-expressed as N-terminal GST-tagged protein with FLAG-Cyclin E1 in a baculovirus expression system (Carna Product Number 04-165). Assays were conducted in white 384-well polystyrene plates in a final reaction volume of 8 μL. CDK2/Cyclin E1 (0.25 nM) was incubated with the compounds of the Examples (40 nL serially diluted in DMSO) in the presence of ATP (50 μM or 1 mM) and 50 nM ULight™-labeled eIF4E-binding protein 1 (THR37/46) peptide (PerkinElmer) in assay buffer (containing 50 mM HEPES pH 7.5, 1 mM EGTA, 10 mM MgCl2, 2 mM DTT, 0.05 mg/mL BSA, and 0.01% Tween 20) for 60 minutes at room temperature. The reactions were stopped by the addition of EDTA and Europium-labeled anti-phospho-4E-BP1 antibody (PerkinElmer), for a final concentration of 15 mM and 1.5 nM, respectively. HTRF signals were read after 1 hour at room temperature on a PHERAstar FS plate reader (BMG Labtech). Data was analyzed with IDBS XLFit and GraphPad Prism 5.0 software using a three or four parameter dose response curve to determine IC50 for each compound.

Structure (SMILES) | IC50 [nM]
C[C@@H]1CN(S(C)(=O)=O)CC[C@@H]1Nc1nc2ccc(-c3cn[nH]c3)c(OCC3CCCC3)n2n1 [Example 77, 5-(Cyclopentylmethoxy)-N-((3R,4S)-3-methyl-1-(methylsulfonyl)piperidin-4-yl)-6-(1H-pyrazol-4-yl)-[1,2,4]triazolo[1,5-a]pyridin-2-amine] | ≤ 20
CCOc1c(-c2c[nH]nc2C)ccn2nc(NC3CCN(S(C)(=O)=O)CC3)nc12 [Example 17, 8-ethoxy-7-(3-methyl-1H-pyrazol-4-yl)-N-(1-(methylsulfonyl)piperidin-4-yl)-[1,2,4]triazolo[1,5-a]pyridin-2-amine] | ≤ 20
CC(C)COc1c(-c2cn[nH]c2)ccc2nc(N[C@H]3CCN(S(C)(=O)=O)C[C@H]3C)nn12 [Example 70, 5-Isobutoxy-N-((3R,4S)-3-methyl-1-(methylsulfonyl)piperidin-4-yl)-6-(1H-pyrazol-4-yl)-[1,2,4]triazolo[1,5-a]pyridin-2-amine] | ≤ 20
C[C@@H]1CN(S(C)(=O)=O)CC[C@@H]1Nc1nc2cnc(-c3cn[nH]c3)c(N3CCCCC3)n2n1 [Example 125, N-((3R,4S)-3-Methyl-1-(methylsulfonyl)piperidin-4-yl)-5-(piperidin-1-yl)-6-(1H-pyrazol-4-yl)-[1,2,4]triazolo[1,5-a]pyrazin-2-amine] | ≤ 20
CCOc1c(-c2cn[nH]c2)ncn2nc(NC3CCN(S(C)(=O)=O)CC3)nc12 [Example 32, 8-Ethoxy-N-(1-(methylsulfonyl)piperidin-4-yl)-7-(1H-pyrazol-4-yl)-[1,2,4]triazolo[1,5-c]pyrimidin-2-amine] | ≤ 20
CCS(=O)(=O)N1CC[C@H](Nc2nc3cnc(-c4cn[nH]c4)c(OC(C)C)n3n2)[C@H](C)C1 [Example 88, N-((3R,4S)-1-(Ethylsulfonyl)-3-methylpiperidin-4-yl)-5-isopropoxy-6-(1H-pyrazol-4-yl)-[1,2,4]triazolo[1,5-a]pyrazin-2-amine] | ≤ 20
C[C@@H]1CN(S(C)(=O)=O)CC[C@@H]1Nc1nc2ccc(-c3cn[nH]c3)c(OC3CCC3)n2n1 [Example 69, 5-Cyclobutoxy-N-((3R,4S)-3-methyl-1-(methylsulfonyl)piperidin-4-yl)-6-(1H-pyrazol-4-yl)-[1,2,4]triazolo[1,5-a]pyridin-2-amine] | ≤ 20
CC(C)Oc1c(-c2cn[nH]c2)ncn2nc(N[C@H]3CCN(S(=O)(=O)CCCN4CCN(C)CC4)C[C@H]3C)nc12 [Example 61, 8-Isopropoxy-N-((3R,4S)-3-methyl-1-((3-(4-methylpiperazin-1-yl)propyl)sulfonyl)piperidin-4-yl)-7-(1H-pyrazol-4-yl)-[1,2,4]triazolo[1,5-c]pyrimidin-2-amine] | ≤ 20
CS(=O)(=O)N1CCC(Nc2nc3cnc(-c4cn[nH]c4)c(N4CCC[C@H](F)C4)n3n2)CC1 [Example 129, (S)-5-(3-Fluoropiperidin-1-yl)-N-(1-(methylsulfonyl)piperidin-4-yl)-6-(1H-pyrazol-4-yl)-[1,2,4]triazolo[1,5-a]pyrazin-2-amine] | ≤ 20
CS(=O)(=O)N1CCC(Nc2nc3c(N4CCCCC4)c(-c4cn[nH]c4)ncn3n2)CC1 [Example 49, N-(1-(Methylsulfonyl)piperidin-4-yl)-8-(piperidin-1-yl)-7-(1H-pyrazol-4-yl)-[1,2,4]triazolo[1,5-c]pyrimidin-2-amine] | ≤ 20
C[C@@H]1CN(S(C)(=O)=O)CC[C@@H]1Nc1nc2ccc(-c3cn[nH]c3)c(OC3CC3)n2n1 [Example 74, 5-Cyclopropoxy-N-((3R,4S)-3-methyl-1-(methylsulfonyl)piperidin-4-yl)-6-(1H-pyrazol-4-yl)-[1,2,4]triazolo[1,5-a]pyridin-2-amine] | ≤ 20
CCN(C)CCCCS(=O)(=O)N1CC[C@H](Nc2nc3c(OC(C)C)c(-c4cn[nH]c4)ncn3n2)[C@H](C)C1 [Example 65, N-((3R,4S)-1-((4-(Ethyl(methyl)amino)butyl)sulfonyl)-3-methylpiperidin-4-yl)-8-isopropoxy-7-(1H-pyrazol-4-yl)-[1,2,4]triazolo[1,5-c]pyrimidin-2-amine] | ≤ 20
CC(C)COc1c(-c2ccnc3[nH]ccc23)ccn2nc(NC3CCN(S(C)(=O)=O)CC3)nc12 [Example 15, 8-isobutoxy-N-(1-(methylsulfonyl)piperidin-4-yl)-7-(1H-pyrrolo[2,3-b]pyridin-4-yl)-[1,2,4]triazolo[1,5-a]pyridin-2-amine] | ≤ 20
CCOc1c(-c2cn[nH]c2)ncc2nc(NC3CCN(S(C)(=O)=O)CC3)nn12 [Example 122, 5-Ethoxy-N-(1-(methylsulfonyl)piperidin-4-yl)-6-(1H-pyrazol-4-yl)-[1,2,4]triazolo[1,5-a]pyrazin-2-amine] | ≤ 20
C[C@@H]1CN(S(C)(=O)=O)CC[C@@H]1Nc1nc2cnc(-c3cn[nH]c3)c(OC3CC3)n2n1 [Example 109, 5-Cyclopropoxy-N-((3R,4S)-3-methyl-1-(methylsulfonyl)piperidin-4-yl)-6-(1H-pyrazol-4-yl)-[1,2,4]triazolo[1,5-a]pyrazin-2-amine] | ≤ 20
CC(C)Oc1c(-c2cn[nH]c2)ncn2nc(N[C@H]3CCN(S(=O)(=O)CCCCN4CCOCC4)C[C@H]3C)nc12 [Example 63, 8-Isopropoxy-N-((3R,4S)-3-methyl-1-((4-morpholinobutyl)sulfonyl)piperidin-4-yl)-7-(1H-pyrazol-4-yl)-[1,2,4]triazolo[1,5-c]pyrimidin-2-amine] | ≤ 20
CS(=O)(=O)N1CCC(Nc2nc3cnc(-c4cn[nH]c4)c(N4CC5CCC4C5)n3n2)CC1 (stereo not shown) [Example 131, 5-(2-Azabicyclo[2.2.1]heptan-2-yl)-N-(1-(methylsulfonyl)piperidin-4-yl)-6-(1H-pyrazol-4-yl)-[1,2,4]triazolo[1,5-a]pyrazin-2-amine] | ≤ 20
C[C@@H]1CN(S(C)(=O)=O)CC[C@@H]1Nc1nc2cnc(-c3cn[nH]c3)c(N3CCCC(F)(F)C3)n2n1 [Example 127, 5-(3,3-Difluoropiperidin-1-yl)-N-((3R,4S)-3-methyl-1-(methylsulfonyl)piperidin-4-yl)-6-(1H-pyrazol-4-yl)-[1,2,4]triazolo[1,5-a]pyrazin-2-amine] | ≤ 20
CC(C)COc1c(-c2cn[nH]c2)ncc2nc(N[C@H]3CCN(S(C)(=O)=O)C[C@H]3C)nn12 [Example 101, 5-Isobutoxy-N-((3R,4S)-3-methyl-1-(methylsulfonyl)piperidin-4-yl)-6-(1H-pyrazol-4-yl)-[1,2,4]triazolo[1,5-a]pyrazin-2-amine] | ≤ 20
CS(=O)(=O)N1CCC(Nc2nc3c(N4CCC(C(F)(F)F)CC4)c(-c4cn[nH]c4)ccn3n2)CC1 [Example 30, N-(1-(methylsulfonyl)piperidin-4-yl)-7-(1H-pyrazol-4-yl)-8-(4-(trifluoromethyl)piperidin-1-yl)-[1,2,4]triazolo[1,5-a]pyridin-2-amine] | ≤ 20
CC(C)Sc1c(-c2cn[nH]c2)ncc2nc(NC3CCN(S(C)(=O)=O)CC3)nn12 [Example 124, 5-(Isopropylthio)-N-(1-(methylsulfonyl)piperidin-4-yl)-6-(1H-pyrazol-4-yl)-[1,2,4]triazolo[1,5-a]pyrazin-2-amine] | ≤ 20
CC(C)COc1c(-c2cn[nH]c2)ncc2nc(NC3CCN(S(C)(=O)=O)CC3)nn12 [Example 104, 5-Isobutoxy-N-(1-(methylsulfonyl)piperidin-4-yl)-6-(1H-pyrazol-4-yl)-[1,2,4]triazolo[1,5-a]pyrazin-2-amine] | ≤ 20
CCCCOc1c(-c2cn[nH]c2)ncc2nc(N[C@H]3CCN(S(C)(=O)=O)C[C@H]3C)nn12 [Example 103, 5-Butoxy-N-((3R,4S)-3-methyl-1-(methylsulfonyl)piperidin-4-yl)-6-(1H-pyrazol-4-yl)-[1,2,4]triazolo[1,5-a]pyrazin-2-amine] | ≤ 20
CC(C)Oc1c(-c2cn[nH]c2)ncn2nc(N[C@H]3CCN(S(=O)(=O)C4CC4)C[C@H]3C)nc12 [Example 53, N-((3R,4S)-1-(Cyclopropylsulfonyl)-3-methylpiperidin-4-yl)-8-isopropoxy-7-(1H-pyrazol-4-yl)-[1,2,4]triazolo[1,5-c]pyrimidin-2-amine] | ≤ 20
CC(C)Oc1c(-c2cn[nH]c2)ncc2nc(NC3CCN(S(C)(=O)=O)CC3)nn12 [Example 141, 5-Isopropoxy-N-(1-(methylsulfonyl)piperidin-4-yl)-6-(1H-pyrazol-4-yl)-[1,2,4]triazolo[1,5-a]pyrazin-2-amine] | ≤ 20
CS(=O)(=O)N1CCC(Nc2nc3ccc(-c4cn[nH]c4)c(OCC(F)F)n3n2)CC1 [Example 80, 5-(2,2-Difluoroethoxy)-N-(1-(methylsulfonyl)piperidin-4-yl)-6-(1H-pyrazol-4-yl)-[1,2,4]triazolo[1,5-a]pyridin-2-amine] | ≤ 20
CS(=O)(=O)N1CCC(Nc2nc3c(OCCC(F)(F)F)c(-c4cn[nH]c4)ncn3n2)CC1 [Example 46, N-(1-(Methylsulfonyl)piperidin-4-yl)-7-(1H-pyrazol-4-yl)-8-(3,3,3-trifluoropropoxy)-[1,2,4]triazolo[1,5-c]pyrimidin-2-amine] | ≤ 20
CS(=O)(=O)N1CCC(Nc2nc3ccc(-c4cn[nH]c4)c(OCC(F)(F)C(F)F)n3n2)CC1 [Example 81, N-(1-(Methylsulfonyl)piperidin-4-yl)-6-(1H-pyrazol-4-yl)-5-(2,2,3,3-tetrafluoropropoxy)-[1,2,4]triazolo[1,5-a]pyridin-2-amine] | ≤ 20
